Test systems include ACHN; CAKI-1; COLO 205; DU-145; HCT-15; HOP-62; K562; MDA-MB-231; MDA-MB-435; Malme-3M; NCI-H460; NCI-H522; OVCAR-3; RXF 393; SK-MEL-2; SK-MEL-5; SK-OV-3; SNB-19; SW-620; TK-10.
Experiment in all cases: DTP human tumour cell line panel, 48 h

SMILES strings stand for the structures.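 Five concentrations, 48 hours, 96-well plates. GI50: concentration for 50% inhibition of growth.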 Active and inactive are the calls of the source. Rule as the data show it: active = GI50 up to about 1.1 µM and inactive = higher.

Here are results for 6 molecules from ChEMBL document CHEMBL1201862, “PubChem BioAssay data set” (2004).

As for `NC(=O)C(=CNC(N)=S)C(N)=O`, the GI50 (commonly the concentration at which growth is held to half of that of the control) in the assay with ACHN was > 100 µM (inactive); in the assay on CAKI-1 it was > 100 µM (inactive); with COLO 205, > 100 µM (inactive); in the assay on DU-145 it was > 100 µM (inactive); with HCT-15 it was above 100 µM; in the assay with HOP-62, > 100 µM (inactive). Moreover, the GI50 in the assay on K562, in the assay on MDA-MB-231, in the assay with MDA-MB-435, in the assay on Malme-3M, in the assay with NCI-H460 and in the assay on NCI-H522 was > 100 µM (inactive) throughout. The GI50 with OVCAR-3, in the assay with RXF 393, with SK-MEL-2, with SK-MEL-5, in the assay on SK-OV-3 and with SNB-19 was > 100 µM (inactive) throughout. The GI50 in the assay with SW-620 is > 100 µM (inactive).
Turning to `CSC1=N/C(=C\c2ccc(C)cc2)C(=O)N1`, the GI50 was > 100 µM (inactive) with ACHN; > 100 µM (inactive) with CAKI-1; > 100 µM (inactive) in the assay on COLO 205; > 100 µM (inactive) with DU-145; above 100 µM with HCT-15; 39.5 µM (inactive) in the assay with HOP-62. The GI50 in the assay on MDA-MB-231 is 92.7 µM (inactive); with MDA-MB-435, > 100 µM (inactive); in the assay with Malme-3M, > 100 µM (inactive); in the assay with NCI-H522 it was 34.1 µM (inactive); in the assay on OVCAR-3, > 100 µM (inactive); in the assay with RXF 393 it was 26.4 µM (inactive). Besides, the GI50 was > 100 µM (inactive) with SK-MEL-2; > 100 µM (inactive) in the assay with SK-OV-3; 58.7 µM (inactive) in the assay on SNB-19; > 100 µM (inactive) with SW-620; > 100 µM (inactive) with TK-10.
On to `O=C(/C=C1\Nc2ccccc2N\C1=C\C(=O)c1ccc(Cl)cc1)c1ccccc1`, for which the GI50 with ACHN was 31.6 µM (inactive); in the assay on CAKI-1, 27.8 µM (inactive); with COLO 205 it was > 100 µM (inactive); with DU-145, > 100 µM (inactive); in the assay with HCT-15, 52.7 µM; in the assay with HOP-62, 26.1 µM (inactive). Further, the GI50 with K562 is 37.5 µM (inactive); in the assay on MDA-MB-231, > 100 µM (inactive); in the assay with MDA-MB-435, > 100 µM (inactive); with Malme-3M, > 100 µM (inactive); in the assay with NCI-H460 it was 19.7 µM (inactive); in the assay on NCI-H522, > 100 µM (inactive). Moreover, the GI50 in the assay on RXF 393 is 70.1 µM (inactive); in the assay on SK-MEL-2, > 100 µM (inactive); in the assay with SK-MEL-5, > 100 µM (inactive); in the assay on SK-OV-3, 70 µM (inactive); in the assay with SNB-19, 94.4 µM (inactive); in the assay with SW-620, > 100 µM (inactive). Moreover, in the assay with TK-10, the GI50 was > 100 µM (inactive).
Take `Cc1ccc2c(c1)Sc1ccc(/N=N/N(C)C)cc1N2C`: the GI50 in the assay with ACHN was > 100 µM (inactive); with CAKI-1, > 100 µM (inactive); in the assay on COLO 205, 78.9 µM (inactive); in the assay on DU-145, > 100 µM (inactive); with HCT-15 it was above 100 µM; in the assay with HOP-62 it was > 100 µM (inactive). For the same molecule, the GI50 with MDA-MB-231 was > 100 µM (inactive); with MDA-MB-435 it was > 100 µM (inactive); in the assay on Malme-3M it was > 100 µM (inactive); in the assay on NCI-H460, 54.7 µM (inactive); in the assay on NCI-H522, > 100 µM (inactive); in the assay with OVCAR-3 it was 53.2 µM (inactive). In addition, the GI50 in the assay with RXF 393 is > 100 µM (inactive); with SK-MEL-2, > 100 µM (inactive); in the assay with SK-MEL-5 it was 96.2 µM (inactive); in the assay on SK-OV-3 it was > 100 µM (inactive); in the assay on SNB-19, > 100 µM (inactive); in the assay on SW-620, > 100 µM (inactive). Further, the GI50 in the assay with TK-10 was > 100 µM (inactive).
With `CC[C@](O)(C(=O)O)c1cc2n(c(=O)c1CO)Cc1cc3ccccc3nc1-2`, the GI50 with ACHN was 0.0025 µM (active); in the assay on CAKI-1 it was 0.025 µM (active); in the assay with COLO 205, 0.234 µM (active); with DU-145, 0.0137 µM (active); with HCT-15, 0.0964 µM; with HOP-62, 0.0025 µM (active). In addition, the GI50 in the assay on MDA-MB-231 is 0.665 µM (active); in the assay with MDA-MB-435, 0.0532 µM (active); in the assay on Malme-3M, 0.0975 µM (active); in the assay with NCI-H460, 0.025 µM (active); with NCI-H522 it was 0.0306 µM (active); in the assay with RXF 393, 0.0384 µM (active). Besides, the GI50 is 0.23 µM (active) in the assay with SK-MEL-2; 0.0333 µM (active) with SK-MEL-5; 0.0372 µM (active) with SK-OV-3; 0.025 µM (active) in the assay on SNB-19; 0.282 µM (active) in the assay on TK-10.
Take `c1ccc2c(c1)-c1nc3ccccc3cc1C2N1CCOCC1` (stereo not given): the GI50 with ACHN is > 100 µM (inactive); in the assay on CAKI-1, > 100 µM (inactive); in the assay with COLO 205, > 100 µM (inactive); in the assay with DU-145, > 100 µM (inactive); in the assay with HCT-15, above 100 µM; with HOP-62, > 100 µM (inactive). Moreover, the GI50 in the assay on K562 was > 100 µM (inactive); with MDA-MB-231 it was > 100 µM (inactive); in the assay on MDA-MB-435, > 100 µM (inactive); in the assay on Malme-3M it was > 100 µM (inactive); in the assay on NCI-H522, 43.5 µM (inactive); with OVCAR-3, > 100 µM (inactive). The GI50 in the assay with RXF 393 was > 100 µM (inactive); in the assay with SK-MEL-2, > 100 µM (inactive); with SK-MEL-5, 82.4 µM (inactive); in the assay on SK-OV-3 it was > 100 µM (inactive); in the assay on SNB-19, > 100 µM (inactive); in the assay with SW-620, > 100 µM (inactive). In addition, the GI50 in the assay on TK-10 was > 100 µM (inactive).
